PMC10882719 (Frontiers in Neuroscience, 2024)
Read-outs that look alike come from different tables or passages of the source.

Key:
Assay type in all cases: cell-based
168 GPCRs [1] = molecular target: T1, 168 GPCRs (Homo sapiens, UniProt O00574)
T1 construct: host or cells: PathHunter cell lines

168 GPCRs [2] = molecular target: T2, 168 GPCRs (Homo sapiens, UniProt P08913); settings: ADRA2A
T2 construct: host or cells: PathHunter cell lines
T2 sequence (P08913 1-465): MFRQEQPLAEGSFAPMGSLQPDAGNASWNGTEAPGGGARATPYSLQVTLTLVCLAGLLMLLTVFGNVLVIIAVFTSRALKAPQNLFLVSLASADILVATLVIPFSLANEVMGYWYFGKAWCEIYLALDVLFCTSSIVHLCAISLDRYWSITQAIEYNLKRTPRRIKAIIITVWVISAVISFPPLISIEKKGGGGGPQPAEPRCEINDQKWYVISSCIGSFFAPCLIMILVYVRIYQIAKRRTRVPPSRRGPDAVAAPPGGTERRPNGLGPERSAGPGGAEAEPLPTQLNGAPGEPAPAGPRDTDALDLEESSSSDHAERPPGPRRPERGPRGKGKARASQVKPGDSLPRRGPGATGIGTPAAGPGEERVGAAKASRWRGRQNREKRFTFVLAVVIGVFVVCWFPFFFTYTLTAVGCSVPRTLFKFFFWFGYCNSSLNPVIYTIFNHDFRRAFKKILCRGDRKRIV

168 GPCRs [3] = molecular target: T3, 168 GPCRs (Homo sapiens, UniProt P21554)
T3 construct: host or cells: PathHunter cell lines
T3 sequence (P21554 whole entry): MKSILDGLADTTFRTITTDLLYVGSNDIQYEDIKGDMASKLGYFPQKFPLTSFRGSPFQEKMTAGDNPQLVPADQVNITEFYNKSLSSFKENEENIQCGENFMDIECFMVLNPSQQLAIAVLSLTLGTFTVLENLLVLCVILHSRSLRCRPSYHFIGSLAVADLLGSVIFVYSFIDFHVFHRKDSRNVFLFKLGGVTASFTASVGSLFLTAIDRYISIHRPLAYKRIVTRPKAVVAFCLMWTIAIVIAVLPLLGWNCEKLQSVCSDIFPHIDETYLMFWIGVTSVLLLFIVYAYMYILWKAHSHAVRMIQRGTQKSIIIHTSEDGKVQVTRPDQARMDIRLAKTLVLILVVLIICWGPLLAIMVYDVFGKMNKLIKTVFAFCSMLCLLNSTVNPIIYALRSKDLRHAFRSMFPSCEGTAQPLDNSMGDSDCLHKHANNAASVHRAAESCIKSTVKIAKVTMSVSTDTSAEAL

168 GPCRs [4] = molecular target: T4, 168 GPCRs (Homo sapiens, UniProt P21918)
T4 construct: host or cells: PathHunter cell lines
T4 sequence (P21918 whole entry): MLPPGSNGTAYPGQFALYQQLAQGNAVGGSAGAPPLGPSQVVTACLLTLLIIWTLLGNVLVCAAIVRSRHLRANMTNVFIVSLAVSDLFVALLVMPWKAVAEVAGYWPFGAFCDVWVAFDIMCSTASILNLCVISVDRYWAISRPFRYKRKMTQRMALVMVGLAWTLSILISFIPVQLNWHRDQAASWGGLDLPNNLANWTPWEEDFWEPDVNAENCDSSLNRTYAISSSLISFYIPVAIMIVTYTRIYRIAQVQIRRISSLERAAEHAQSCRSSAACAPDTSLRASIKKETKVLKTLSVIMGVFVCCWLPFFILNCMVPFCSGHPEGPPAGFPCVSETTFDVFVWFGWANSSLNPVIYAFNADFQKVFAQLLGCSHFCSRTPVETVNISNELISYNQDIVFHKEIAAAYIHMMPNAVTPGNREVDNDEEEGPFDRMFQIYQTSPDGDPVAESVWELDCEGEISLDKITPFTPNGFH

168 GPCRs [5] = molecular target: T5, 168 GPCRs (Homo sapiens, UniProt P25929); settings: NPY1R
T5 construct: host or cells: PathHunter cell lines
T5 sequence (P25929 1-384): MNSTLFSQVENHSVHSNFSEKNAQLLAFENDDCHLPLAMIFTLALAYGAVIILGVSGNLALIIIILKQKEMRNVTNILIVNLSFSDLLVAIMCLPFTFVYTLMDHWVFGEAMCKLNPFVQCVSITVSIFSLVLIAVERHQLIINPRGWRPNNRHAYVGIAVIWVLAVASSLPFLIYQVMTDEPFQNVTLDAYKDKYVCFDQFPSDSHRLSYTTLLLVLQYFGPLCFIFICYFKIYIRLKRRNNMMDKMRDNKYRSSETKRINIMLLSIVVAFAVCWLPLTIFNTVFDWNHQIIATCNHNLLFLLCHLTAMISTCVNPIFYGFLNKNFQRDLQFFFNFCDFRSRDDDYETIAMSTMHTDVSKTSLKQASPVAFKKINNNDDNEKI

168 GPCRs [6] = molecular target: T6, 168 GPCRs (Homo sapiens, UniProt P30872); settings: SSTR1
T6 construct: host or cells: PathHunter cell lines
T6 sequence (P30872 whole entry): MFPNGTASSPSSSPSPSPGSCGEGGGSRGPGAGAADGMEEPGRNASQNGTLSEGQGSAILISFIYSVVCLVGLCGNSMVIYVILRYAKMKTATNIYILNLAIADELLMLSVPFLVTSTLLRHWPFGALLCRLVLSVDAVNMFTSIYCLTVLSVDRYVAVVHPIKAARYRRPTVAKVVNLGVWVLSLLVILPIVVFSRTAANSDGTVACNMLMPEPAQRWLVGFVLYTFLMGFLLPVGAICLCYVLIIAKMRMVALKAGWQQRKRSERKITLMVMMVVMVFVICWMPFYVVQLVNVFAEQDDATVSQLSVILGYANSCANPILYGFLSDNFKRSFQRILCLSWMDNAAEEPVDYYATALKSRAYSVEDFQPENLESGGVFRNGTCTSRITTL

168 GPCRs [7] = molecular target: T7, 168 GPCRs (Homo sapiens, UniProt P35346); settings: SSTR5
T7 construct: host or cells: PathHunter cell lines
T7 sequence (P35346 whole entry): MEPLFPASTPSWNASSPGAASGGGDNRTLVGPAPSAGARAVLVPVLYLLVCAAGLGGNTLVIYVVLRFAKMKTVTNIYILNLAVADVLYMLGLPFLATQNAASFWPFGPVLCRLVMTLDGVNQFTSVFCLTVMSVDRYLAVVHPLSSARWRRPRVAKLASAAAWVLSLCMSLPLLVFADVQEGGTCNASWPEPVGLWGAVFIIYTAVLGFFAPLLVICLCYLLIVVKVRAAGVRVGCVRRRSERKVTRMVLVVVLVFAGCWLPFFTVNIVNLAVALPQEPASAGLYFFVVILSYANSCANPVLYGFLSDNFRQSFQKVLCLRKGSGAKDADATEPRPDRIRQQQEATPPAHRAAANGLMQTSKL

168 GPCRs [8] = molecular target: T8, 168 GPCRs (Homo sapiens, UniProt Q01726); settings: MC1R
T8 construct: host or cells: PathHunter cell lines
T8 sequence (Q01726 whole entry): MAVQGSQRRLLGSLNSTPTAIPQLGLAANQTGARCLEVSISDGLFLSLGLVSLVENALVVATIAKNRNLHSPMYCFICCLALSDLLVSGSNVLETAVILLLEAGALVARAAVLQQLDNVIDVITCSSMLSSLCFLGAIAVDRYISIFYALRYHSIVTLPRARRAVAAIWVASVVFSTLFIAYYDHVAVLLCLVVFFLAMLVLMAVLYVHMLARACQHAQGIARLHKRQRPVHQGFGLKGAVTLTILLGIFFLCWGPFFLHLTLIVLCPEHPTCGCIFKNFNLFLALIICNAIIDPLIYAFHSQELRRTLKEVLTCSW

168 GPCRs [9] = molecular target: T9, 168 GPCRs (Homo sapiens, UniProt Q96P65)
T9 construct: host or cells: PathHunter cell lines
T9 sequence (Q96P65 1-431): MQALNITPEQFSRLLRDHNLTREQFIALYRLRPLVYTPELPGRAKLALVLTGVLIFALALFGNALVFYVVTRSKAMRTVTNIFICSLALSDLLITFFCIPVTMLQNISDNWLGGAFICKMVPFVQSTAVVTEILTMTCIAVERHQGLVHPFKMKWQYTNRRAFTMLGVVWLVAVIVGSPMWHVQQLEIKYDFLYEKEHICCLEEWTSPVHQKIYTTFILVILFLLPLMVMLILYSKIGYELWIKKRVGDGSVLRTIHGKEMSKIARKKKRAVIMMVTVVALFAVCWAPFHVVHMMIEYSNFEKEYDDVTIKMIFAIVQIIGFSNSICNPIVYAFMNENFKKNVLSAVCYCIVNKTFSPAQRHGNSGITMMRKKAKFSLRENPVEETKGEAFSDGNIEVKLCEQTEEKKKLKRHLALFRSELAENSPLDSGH

168 GPCRs [10] = molecular target: T10, 168 GPCRs (Homo sapiens, UniProt Q9GZQ6); settings: NPFFR1
T10 construct: host or cells: PathHunter cell lines
T10 sequence (Q9GZQ6 whole entry): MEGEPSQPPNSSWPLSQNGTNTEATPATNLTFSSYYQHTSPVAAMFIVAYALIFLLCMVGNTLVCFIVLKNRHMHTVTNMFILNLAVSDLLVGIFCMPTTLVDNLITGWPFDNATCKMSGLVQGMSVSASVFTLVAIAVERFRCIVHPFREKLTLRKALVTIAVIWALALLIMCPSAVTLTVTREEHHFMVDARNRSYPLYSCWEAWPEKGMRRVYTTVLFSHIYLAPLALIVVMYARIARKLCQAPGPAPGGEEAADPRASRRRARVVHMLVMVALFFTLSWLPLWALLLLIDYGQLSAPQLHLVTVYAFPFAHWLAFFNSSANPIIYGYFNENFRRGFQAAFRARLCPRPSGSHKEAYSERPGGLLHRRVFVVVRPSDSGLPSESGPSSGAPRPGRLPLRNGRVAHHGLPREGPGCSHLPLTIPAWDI

T1 sequence (O00574 whole entry): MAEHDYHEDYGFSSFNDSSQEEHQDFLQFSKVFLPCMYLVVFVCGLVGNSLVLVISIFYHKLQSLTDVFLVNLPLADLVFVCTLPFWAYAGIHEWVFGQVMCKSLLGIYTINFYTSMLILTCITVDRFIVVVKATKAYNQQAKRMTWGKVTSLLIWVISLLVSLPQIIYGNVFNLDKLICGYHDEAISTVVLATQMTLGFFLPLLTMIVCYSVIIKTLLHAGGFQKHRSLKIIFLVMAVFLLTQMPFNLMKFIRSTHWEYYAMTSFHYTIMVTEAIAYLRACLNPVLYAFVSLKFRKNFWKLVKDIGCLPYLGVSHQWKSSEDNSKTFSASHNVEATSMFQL

Row | Compound | % Agonist Activity (168 GPCRs [1]; CXCR6, 1 uM) [%] | % Antagonist Activity (168 GPCRs [1]; CXCR6, 1 uM) [%] | % Agonist Activity (168 GPCRs [1]; CXCR6, 10 uM) [%] | % Antagonist Activity (168 GPCRs [1]; CXCR6, 10 uM) [%] | % Agonist Activity (168 GPCRs [2]; 1 uM) [%] | % Antagonist Activity (168 GPCRs [2]; 1 uM) [%] | % Agonist Activity (168 GPCRs [2]; 10 uM) [%] | % Antagonist Activity (168 GPCRs [2]; 10 uM) [%] | % Agonist Activity (168 GPCRs [3]; CNR1, 1 uM) [%] | % Antagonist Activity (168 GPCRs [3]; CNR1, 1 uM) [%] | % Agonist Activity (168 GPCRs [3]; CNR1, 10 uM) [%] | % Antagonist Activity (168 GPCRs [3]; CNR1, 10 uM) [%] | % Agonist Activity (168 GPCRs [4]; DRD5, 1 uM) [%] | % Antagonist Activity (168 GPCRs [4]; DRD5, 1 uM) [%] | % Agonist Activity (168 GPCRs [4]; DRD5, 10 uM) [%] | % Antagonist Activity (168 GPCRs [4]; DRD5, 10 uM) [%] | % Agonist Activity (168 GPCRs [5]; Conc 1 uM) [%] | % Antagonist Activity (168 GPCRs [5]; Conc 1 uM) [%] | % Agonist Activity (168 GPCRs [5]; Conc 10 uM) [%] | % Antagonist Activity (168 GPCRs [5]; Conc 10 uM) [%] | further results
1 | CNC(C)C(=O)c1ccc2c(c1)OCO2 (centres unmarked) [methylone] | 0.3 | 27.2 | 0.3 | 12.6 | -3.8 | -4.6 | -3.8 | 1.9 | -0.4 | -3.5 | -2.7 | -17.1 | -0.1 | -5.9 | -0.2 | -2.6 | -2.2 | 0.2 | -4.9 | 5.4 | % Agonist Activity (168 GPCRs [6]; Conc 1 uM): -5.3%; % Antagonist Activity (168 GPCRs [6]; Conc 1 uM): 32.4%; % Agonist Activity (168 GPCRs [6]; Conc 10 uM): -7.4%; % Antagonist Activity (168 GPCRs [6]; Conc 10 uM): 20.9%; % Agonist Activity (168 GPCRs [7]; Conc 1 uM): -2.4%; % Antagonist Activity (168 GPCRs [7]; Conc 1 uM): 14.7%; % Agonist Activity (168 GPCRs [7]; Conc 10 uM): -1.3%; % Antagonist Activity (168 GPCRs [7]; Conc 10 uM): 5.7%; % Agonist Activity (168 GPCRs [8]; 1 uM): -2.6%; % Antagonist Activity (168 GPCRs [8]; 1 uM): 20.1%; % Agonist Activity (168 GPCRs [8]; 10 uM): -4.4%; % Antagonist Activity (168 GPCRs [8]; 10 uM): 15.9%; % Agonist Activity (168 GPCRs [9]; GPR103, 1 uM): 0.8%; % Antagonist Activity (168 GPCRs [9]; GPR103, 1 uM): 4.1%; % Agonist Activity (168 GPCRs [9]; GPR103, 10 uM): 3.1%; % Antagonist Activity (168 GPCRs [9]; GPR103, 10 uM): 7%; % Agonist Activity (168 GPCRs [10]; Conc 1 uM): -4.6%; % Antagonist Activity (168 GPCRs [10]; Conc 1 uM): 32%; % Agonist Activity (168 GPCRs [10]; Conc 10 uM): -5.6%; % Antagonist Activity (168 GPCRs [10]; Conc 10 uM): 27.1%
2 | CNC(C)Cc1ccc2c(c1)OCO2 (centres unmarked) [MDMA, 3,4-Methylenedioxy methamphetamine, reference compound] | 14.7 | 20.9 | 3.8 | 5.2 | 7 | -5 | 6.5 | -13.9 | -0.5 | 7.8 | 0.1 | 11.2 | 1.7 | 10.8 | 1.4 | 10.5 | 1.3 | -3.9 | 0.6 | 2.2 | % Agonist Activity (168 GPCRs [6]; Conc 1 uM): -9%; % Antagonist Activity (168 GPCRs [6]; Conc 1 uM): 5.6%; % Agonist Activity (168 GPCRs [6]; Conc 10 uM): -12.3%; % Antagonist Activity (168 GPCRs [6]; Conc 10 uM): 7.5%; % Agonist Activity (168 GPCRs [7]; Conc 1 uM): -2.5%; % Antagonist Activity (168 GPCRs [7]; Conc 1 uM): 1.6%; % Agonist Activity (168 GPCRs [7]; Conc 10 uM): -3.2%; % Antagonist Activity (168 GPCRs [7]; Conc 10 uM): -2%; % Agonist Activity (168 GPCRs [8]; 1 uM): -6.6%; % Antagonist Activity (168 GPCRs [8]; 1 uM): 6.5%; % Agonist Activity (168 GPCRs [8]; 10 uM): -3.4%; % Antagonist Activity (168 GPCRs [8]; 10 uM): -4.9%; % Agonist Activity (168 GPCRs [9]; GPR103, 1 uM): -4.2%; % Antagonist Activity (168 GPCRs [9]; GPR103, 1 uM): -15.2%; % Agonist Activity (168 GPCRs [9]; GPR103, 10 uM): -6.5%; % Antagonist Activity (168 GPCRs [9]; GPR103, 10 uM): -17.1%; % Agonist Activity (168 GPCRs [10]; Conc 1 uM): -3.2%; % Antagonist Activity (168 GPCRs [10]; Conc 1 uM): 17.7%; % Agonist Activity (168 GPCRs [10]; Conc 10 uM): -5.5%; % Antagonist Activity (168 GPCRs [10]; Conc 10 uM): 20.8%
